The results in this text go back to US8829185B2 (Bayer HealthCare LLC, priority 2005, dated 2014).

Each structure is given as a SMILES string.

This test has as its target T1, FGFR1-GST (Homo sapiens, UniProt P11362).
T1 construct: GST; made in house
The test can be described thus: FGFR-1 TR-FRET biochemical assay. The method, then: FGFR-1 TR-FRET Biochemical Assay
The FGFR-1 Assay was performed on half well 96-well opaque plates (Costar 3915) in a LANCE format. LANCE is a homogenous time resolved fluormetry based application available through Perkin Elmer. For this assay, 50 uL reactions were set up using: 0.6 uM ATP (Sigma), 25 nM poly GT-biotin (CIS BIO International), 2 nM Eu-labelled phospho-Tyr Ab (PY20 PerkinElmer), 10 nM Streptavidin-APC (Perkin Elmer), 5 nM FGFR1-GST (generated by DRT, Bayer Healthcare), 1% DMSO, 50 mM HEPES pH 7.5, 10 mM MgCl2, 0.1 mM EDTA, 0.015% Brij, 0.1 mg/ml BSA, 0.1% B-mercaptoethanol. All reactions were initiated with the addition of enzyme and were left to incubate for one hour at room temperature. Time-resolved fluorescence was then read on a Perkin Elmer VictorV Multilabel counter. The reading protocol uses an excitation wavelength at 340 nm and emission reads at both 615 and 665 nm. Signal was calculated as a ratio: (Fluorescence at 665 nm/Fluorescence at […])*10000 for each well. The background control used for this assay is the signal produced with all assay components excluding ATP. For IC50 generation, compounds were added prior to the enzyme initiation. A 50-fold stock plate was made with compounds serially diluted 1:5 in a 50% DMSO/50% dH2O solution. A 1 μL addition of the stock to the assay wells gave final compound concentrations ranging from 10 μM −0.128 nM in 1% DMSO. The data were expressed as percent inhibition: % inhibition=100−((Signal with inhibitor-background)/(Signal without inhibitor−background))*100.
(In TR-FRET formats the signal depends on donor and acceptor labels being close together.)

T1 sequence (P11362 22-822): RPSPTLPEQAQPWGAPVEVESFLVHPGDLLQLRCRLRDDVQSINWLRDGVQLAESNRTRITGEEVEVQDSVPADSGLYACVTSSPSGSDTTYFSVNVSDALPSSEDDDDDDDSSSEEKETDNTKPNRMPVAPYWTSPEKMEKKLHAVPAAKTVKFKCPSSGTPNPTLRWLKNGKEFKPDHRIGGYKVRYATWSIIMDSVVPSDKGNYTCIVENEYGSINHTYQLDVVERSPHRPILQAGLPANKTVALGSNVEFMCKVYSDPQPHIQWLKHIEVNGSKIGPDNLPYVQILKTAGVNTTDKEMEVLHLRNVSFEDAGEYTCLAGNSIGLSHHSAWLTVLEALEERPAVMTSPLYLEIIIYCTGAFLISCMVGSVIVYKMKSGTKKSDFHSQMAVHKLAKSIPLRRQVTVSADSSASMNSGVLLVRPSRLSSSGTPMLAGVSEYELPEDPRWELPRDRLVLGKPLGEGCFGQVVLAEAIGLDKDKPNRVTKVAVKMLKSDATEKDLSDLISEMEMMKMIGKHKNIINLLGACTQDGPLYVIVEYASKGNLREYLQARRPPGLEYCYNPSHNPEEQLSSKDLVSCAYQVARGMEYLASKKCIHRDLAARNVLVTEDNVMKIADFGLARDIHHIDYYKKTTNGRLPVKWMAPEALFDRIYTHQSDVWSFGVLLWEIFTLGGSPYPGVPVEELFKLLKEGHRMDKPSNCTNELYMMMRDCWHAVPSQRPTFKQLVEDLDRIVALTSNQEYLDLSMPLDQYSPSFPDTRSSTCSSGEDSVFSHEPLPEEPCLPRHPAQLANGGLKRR

By IC50 is commonly meant the concentration needed to halve the response being measured. As to `COCc1c(-c2ccc(NC(=O)Nc3cc(C(F)(F)F)ccn3)cc2)c2c(N)ncnn2c1CN1CCN(C(C)=O)CC1` [Example 37, N-4-[7-[(4-acetylpiperazin-1-yl)methyl]-4-amino-6-(methoxy-methyl)pyrrolo[2,1-f][1,2,4]triazin-5-yl]phenyl-N′-[4-(trifluoromethyl)pyridin-2-yl]urea], the concentration for half-maximal inhibition (IC50) (bounds given in nM) lay within 10 to 100 nM.
On to `COCc1c(-c2ccc(NC(=O)Nc3cc(C(F)(F)F)ccn3)cc2)c2c(N)ncnn2c1CN1CCC(F)(F)CC1` [Example 40, N-{4-[4-amino-7-[(4,4-difluoropiperidin-1-yl)methyl]-6-(methoxymethyl)pyrrolo[2,1-f][1,2,4]triazin-5-yl]phenyl}-N′-[4-(trifluoromethyl)pyridin-2-yl]urea], for which the half-inhibitory concentration (IC50) is, setting by setting: (bounds given in nM) > 100 nM; (upper bound in μM) < 1000 nM.
The molecule `COCc1c(-c2ccc(NC(=O)Nc3cc(C(F)(F)F)ccc3F)c(F)c2)c2c(N)ncnn2c1CN1CCS(=O)(=O)CC1` [Example 43, N-{4-[4-amino-7-[(1,1-dioxidothiomorpholin-4-yl)methyl]-6-(methoxymethyl)pyrrolo[2,1-f][1,2,4]triazin-5-yl]-2-fluorophenyl}-N′-[2-fluoro-5-(trifluoromethyl)phenyl]urea] displayed an IC50 (bounds given in nM) of 10 to 100 nM.
As to `COCc1c(-c2ccc(NC(=O)Nc3cc(C(F)(F)F)ccc3F)c(F)c2)c2c(N)ncnn2c1CN1CCNC(=O)C1` [Example 44, N-(4-{4-amino-6-(methoxymethyl)-7-[(3-oxopiperazin-1-yl)methyl]pyrrolo[2,1-f][1,2,4]triazin-5-yl}-2-fluorophenyl)-N′-[2-fluoro-5-(trifluoromethyl)phenyl]urea], the IC50 (bounds given in nM) was < 10 nM.
As to `COCc1c(-c2ccc(NC(=O)Nc3cc(C(F)(F)F)ccc3F)c(F)c2)c2c(N)ncnn2c1CN1CCOCC1` [Example 45, N-{4-[4-amino-6-(methoxymethyl)-7-(morpholin-4-ylmethyl)pyrrolo[2,1-f][1,2,4]triazin-5-yl]-2-fluorophenyl}-N′-[2-fluoro-5-(trifluoromethyl)phenyl]urea], the IC50 (bounds given in nM) was < 10 nM.
For the molecule `COCc1c(-c2ccc(NC(=O)Nc3cc(C(F)(F)F)ccc3F)c(F)c2)c2c(N)ncnn2c1CN1CCOC(CO)C1` (stereo not drawn) [Example 47, N-{4-[4-amino-7-{[2-(hydroxymethyl)morpholin-4-yl]methyl}-6-(methoxymethyl)pyrrolo[2,1-f][1,2,4]triazin-5-yl]-2-fluorophenyl}-N′-[2-fluoro-5-(trifluoromethyl)-phenyl]urea], the IC50 (bounds given in nM) lay within 10 to 100 nM.
As to `COCc1c(-c2ccc(NC(=O)Nc3cc(C(F)(F)F)ccc3Cl)cc2)c2c(N)ncnn2c1CN1CCOCC1` [Example 49, N-{4-[4-amino-6-(methoxymethyl)-7-(morpholin-4-ylmethyl)pyrrolo[2,1-f][1,2,4]triazin-5-yl]phenyl}-N′-[2-chloro-5-(trifluoromethyl)phenyl]urea], the IC50 (bounds given in nM) was 10 to 100 nM.
Take `COCc1c(-c2ccc(NC(=O)Nc3cccc(C(F)(F)F)n3)cc2)c2c(N)ncnn2c1CN1CCOCC1` [Example 50]: the IC50 runs as follows: (bounds given in nM) > 100 nM; (upper bound in μM) < 1000 nM.
For the setting “bounds given in nM”, `CN1CCN(Cc2c(C#N)c(-c3ccc(NC(=O)Nc4cc(C(F)(F)F)ccc4F)cc3)c3c(N)ncnn23)CC1` [Example 55, N-(4-4-amino-6-cyano-7-[(4-methylpiperazin-1-yl)methyl]-pyrrolo[2,1-f][1,2,4]triazin-5-ylphenyl)-N′-[2-fluoro-5-(trifluoromethyl)-phenyl]urea] came in with an IC50 of 10 to 100 nM.
`CC(=O)c1c(-c2ccc(NC(=O)Nc3cc(C(F)(F)F)ccc3F)c(F)c2)c2c(N)ncnn2c1CN1CCOCC1` [Example 57, N-4-[6-acetyl-4-amino-7-(morpholin-4-ylmethyl)pyrrolo[2,1-f]-[1,2,4]triazin-5-yl]-2-fluorophenyl-N′-[2-fluoro-5-(trifluoromethyl)phenyl]urea] yielded an IC50 (bounds given in nM) of 10 to 100 nM.
The same measure, in the same setting: under `CC(=O)c1c(-c2ccc(NC(=O)Nc3cccc(C(F)(F)F)c3)c(F)c2)c2c(N)ncnn2c1CN1CCOCC1` [Example 58, N-4-[6-acetyl-4-amino-7-(morpholin-4-ylmethyl)pyrrolo[2,1-f][1,2,4]triazin-5-yl]-2-fluorophenyl-N′-[3-(trifluoromethyl)phenyl]urea] stands < 10 nM; under `CC(=O)c1c(-c2ccc(NC(=O)Nc3ccc(OC(F)(F)F)cc3)c(F)c2)c2c(N)ncnn2c1CN1CCOCC1` [Example 59, N-4-[6-acetyl-4-amino-7-(morpholin-4-ylmethyl)pyrrolo[2,1-f][1,2,4]triazin-5-yl]-2-fluorophenyl-N′-[4-(trifluoromethoxy)phenyl]urea], 10 to 100 nM.
With `CC(=O)c1c(-c2ccc(NC(=O)Nc3cc(C(F)(F)F)ccn3)c(F)c2)c2c(N)ncnn2c1CN1CCOCC1` [Example 60, N-4-[6-acetyl-4-amino-7-(morpholin-4-ylmethyl)pyrrolo[2,1-f][1,2,4]triazin-5-yl]-2-fluorophenyl-N′-[4-(trifluoromethyl)pyridin-2-yl]urea], under “bounds given in nM”, the IC50 is < 10 nM.
Consider `N#CCc1c(-c2ccc(NC(=O)Nc3cc(C(F)(F)F)ccn3)cc2)c2c(N)ncnn2c1CN1CCOCC1` [Example 63, N-{4-[4-amino-6-(cyanomethyl)-7-(morpholin-4-ylmethyl)-pyrrolo[2,1-f][1,2,4]triazin-5-yl]phenyl}-N′-[4-(trifluoromethyl)-pyridin-2-yl]urea], for which the IC50 (bounds given in nM) is < 10 nM.
Turning to `N#CCc1c(-c2ccc(NC(=O)Nc3cc(C(F)(F)F)ccn3)cc2)c2c(N)ncnn2c1CN1CCNC(=O)C1` [Example 66, N-(4-{4-amino-6-(cyanomethyl)-7-[(3-oxopiperazin-1-yl)methyl]-pyrrolo[2,1-f][1,2,4]triazin-5-yl}phenyl)-N′-[4-(trifluoromethyl)pyridin-2-yl]urea], under “bounds given in nM”, the IC50 is < 10 nM.
Take `CS(=O)(=O)N1CCN(Cc2c(CC#N)c(-c3ccc(NC(=O)Nc4cc(C(F)(F)F)ccn4)cc3)c3c(N)ncnn23)CC1` [Example 67, N-[4-(4-amino-6-(cyanomethyl)-7-{[4-(methylsulfonyl)piperazin-1-yl]methyl}pyrrolo[2,1-f][1,2,4]triazin-5-yl)phenyl]-N′-[4-(trifluoromethyl)pyridin-2-yl]urea]: the half-maximal inhibitory concentration (IC50) (bounds given in nM) was in the range of 10 to 100 nM.
For the molecule `N#CCc1c(-c2ccc(NC(=O)Nc3cc(C(F)(F)F)ccc3F)cc2)c2c(N)ncnn2c1CN1CCOCC1` [Example 68, N-{4-[4-amino-6-(cyanomethyl)-7-(morpholin-4-ylmethyl)-pyrrolo[2,1-f][1,2,4]triazin-5-yl]phenyl}-N′-[2-fluoro-5-(trifluoromethyl)-phenyl]urea], where the note is “bounds given in nM”, the IC50 was < 10 nM.
Regarding `N#CCc1c(-c2ccc(NC(=O)Nc3cc(C(F)(F)F)ccc3F)cc2)c2c(N)ncnn2c1CN1CCNC(=O)C1` [Example 70, N-(4-{4-amino-6-(cyanomethyl)-7-[(3-oxopiperazin-1-yl)methyl]pyrrolo[2,1-f][1,2,4]triazin-5-yl}phenyl)-N′-[2-fluoro-5-(trifluoromethyl)phenyl]urea], where the note is “bounds given in nM”, the IC50 was < 10 nM.
Regarding `CN1CCN(Cc2c(CC#N)c(-c3ccc(NC(=O)Nc4cc(C(F)(F)F)ccc4F)cc3)c3c(N)ncnn23)CC1` [Example 74, N-(4-{4-amino-6-(cyanomethyl)-7-[(4-methylpiperazin-1-yl)methyl]pyrrolo[2,1-f][1,2,4]triazin-5-yl}phenyl)-N′-[2-fluoro-5-(trifluoromethyl)phenyl]urea], the IC50 (bounds given in nM) is 10 to 100 nM.
Turning to `N#CCc1c(-c2ccc(NC(=O)Nc3cc(C(F)(F)F)ccc3F)cc2)c2c(N)ncnn2c1CN1CCNCC1` [Example 75, N-(4-{4-amino-6-(cyanomethyl)-7-(piperazin-1-ylmethyl)pyrrolo[2,1-f][1,2,4]triazin-5-yl}phenyl)-N′-[2-fluoro-5-(trifluoromethyl)phenyl]urea], for the setting “bounds given in nM”, the IC50 was < 10 nM.
As to `N#CCc1c(-c2ccc(NC(=O)Nc3cc(C(F)(F)F)ccc3F)c(F)c2)c2c(N)ncnn2c1CN1CCS(=O)(=O)CC1` [Example 79, N-(4-{4-amino-6-(cyanomethyl)-7-[(1,1-dioxidothiomorpholin-4-yl)methyl]pyrrolo[2,1-f][1,2,4]triazin-5-yl}-2-fluorophenyl)-N′-[2-fluoro-5-(trifluoromethyl)phenyl]urea], the IC50 (bounds given in nM) was < 10 nM.
For the molecule `N#CCc1c(-c2ccc(NC(=O)Nc3cc(C(F)(F)F)ccc3Cl)c(F)c2)c2c(N)ncnn2c1CN1CCS(=O)(=O)CC1` [Example 83, N-(4-{4-amino-6-(cyanomethyl)-7-[(1,1-dioxidothiomorpholin-4-yl)methyl]pyrrolo[2,1-f][1,2,4]triazin-5-yl}-2-fluorophenyl)-N′-[2-chloro-5-(trifluoromethyl)phenyl]urea], where the note is “bounds given in nM”, the IC50 was < 10 nM.
With `CC(C)(O)c1c(-c2ccc(NC(=O)Nc3cc(C(F)(F)F)ccn3)cc2)c2c(N)ncnn2c1CN1CCOCC1` [Example 86], the IC50 (bounds given in nM) was > 100 nM and the IC50 (upper bound in μM) is < 1000 nM.
With `CC(=O)c1c(-c2ccc(NC(=O)Nc3cc(C(F)(F)F)ccn3)cc2)c2c(N)ncnn2c1CN1CCOCC1` [Example 88, N-{4-[6-acetyl-4-amino-7-(morpholin-4-ylmethyl)pyrrolo[2,1-f][1,2,4]triazin-5-yl]phenyl}-N′-[4-(trifluoromethyl)-pyridin-2-yl]urea], for the setting “bounds given in nM”, the IC50 was in the range of 10 to 100 nM.
